As usually defined, the IC50 is the concentration that gives 50% inhibition. Higher therefore signals lower potency.

Marks after values point to notes of the source that are not given here.

The test system of data set [1] is MCF-7 human breast adenocarcinoma cells. The data set is described as follows: Cytotoxicity, resazurin metabolism assay, MCF-7. The data set is classed as cell-based. The note with it: mean ± SD. From the text:
(§1) Human lung carcinoma (A-549), human colon adenocarcinoma (DLD-1), human normal fibroblasts (WS1), mice melanoma (B16-F1), Human glioma (U-251), Human hepatocellular carcinoma (HEP G2), Human prostate adenocarcinoma (PC-3), Human ovary teratocarcinoma metastatic (PA-1), Human breast adenocarcinona metastatic (MDA-MB-231), Human breast adenocarcinoma (MCF-7) and Human malignant melanoma (SK-MEL-2) cell lines were obtained from the American Type Culture Collection (ATCC). All cell lines were cultured in minimum essential medium containing Earle's salts and L-glutamine (Mediatech Cellgro, Va.), to which was added 10% fetal bovine serum (Hyclone), vitamins (1×), penicillin (100 I.U./mL) and streptomycin (100 μg/mL), essential amino acids (1×) and sodium pyruvate (1×) (Mediatech Cellgro, Va.). Cells were kept at 37° C. in a humidified environment containing 5% CO2.
(§2) Exponentially growing cells were plated in 96-well microplates (Costar, Corning Inc.) at a density of 5×10^3 cells per well in 100 μL of culture medium and were allowed to adhere for 16 hours before treatment. Increasing concentrations of each compound in DMSO (Sigma-Aldrich) were then added (100 μL per well) and the cells were incubated for 48 h. […] Cytotoxicity was assessed using resazurin (O'Brien, J. et al., Eur. J. Biochem. 2000, 267, 5421-5426) on an automated 96-well Fluoroskan Ascent F1™ plate reader (Labsystems) using excitation and emission wavelengths of 530 nm and 590 nm, respectively. Fluorescence was proportional to the cellular metabolic activity in each well. Survival percentage was defined as the fluorescence in experimental wells compared to that in control wells after subtraction of blank values. Each experiment was carried out three times in triplicata. IC50 results were expressed as mean±standard deviation.
(§3) Compounds presented in Table 5 below were also tested in the following tumour cell lines: U-251 (Human glioma), HEP G2 (Human hepatocellular carcinoma), PC-3 (Human prostate adenocarcinoma), PA-1 (Human ovary teratocarcinoma metastatic), MDA-MB-231 (Human breast adenocarcinona metastatic), MCF-7 (Human breast adenocarcinoma) and SK-MEL-2 (Human malignant melanoma).
For orientation: Alamar Blue is a resazurin reagent that responds to reducing activity.

The next data set has as its system Lewis lung carcinoma. As to the kind of experiment: In vivo antitumoral activity against Lewis lung cancer-bearing mice. The settings on record: day 13. Set-up: species or system C57BL/6 mouse. Here is the method: Cell lines and mice preparation: The Lewis lung carcinoma cell lines (#CRL-1642, lot # 4372266, ATCC) and the C57BL/6 mouse strain (Charles River Inc., St-Constant, Qc) were used. Cells were grown to 90% confluence in complete DMEM medium containing Earle's salts and L-glutamine (Mediatech Cellgro, Va.), 10% foetal bovine serum (Hyclone), vitamins (1×), penicillin (100 I.U./mL) and streptomycin (100 μg/mL), essential amino acids (1×) and sodium pyruvate (1×) (Mediatech Cellgro, Va.). Cells were then harvested with up and down only. Cells were counted using a hemacytometer and resuspended in DMEM medium without SVF. 100 μL of a solution containing 1×10^7 cells/mL was inoculated subcutaneously in the right flank of each 6 weeks old mouse on day zero.
The experimental mice were weighed daily.
Data analysis: In vivo antitumor activity was evaluated according to the parameters as follows (Miot-Noirault, E. et al. Invest. New Drugs 2004, 22, 369-378):
(a) Calculated tumour weight (CTW): The CTW of each tumour was estimated from two-dimensional measurements performed once a day with a slide calliper, according to the formula: CTW (mg)=(L×W^2)/2 with L=length in mm and W=width in mm. Differences in CTW between treated and control groups (DMSO) were analyzed for significance using the U Wilcoxon-Mann-Whitney test and Student t-test. Values of p<0.05 were considered statistically significant.
(b) Treated/Control value (T/C) and Tumour Growth Inhibition (TGI):The T/C was calculated as the ratio of the mean CTW of TW of drug-treated mice versus controls: T/C=(CTW of the drug-treated group on Day X/CTW of the control group on Day X)×100. TGI is 100−(T/C) value.

In data set [2] the test system is MDA-MB-231 human breast adenocarcinoma cells. The data set is described as follows: Cytotoxicity, resazurin metabolism assay, MDA-MB-231. The class given is cell-based. The note with it: mean ± SD.
Source text: as §1, §2, §3

The next data set concerns U-251 human glioma cells. As to the kind of experiment: Cytotoxicity, resazurin metabolism assay, U-251. The class given is cell-based. The settings on record: mean ± SD.
Source text: as §1, §2, §3

In another data set the test system is WS-1 cells. The data set is described as follows: Cytotoxicity, Hoechst DNA assay, WS-1. The data set is classed as cell-based, human. The note with it: ± SD. In a few lines:
(§4)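 Cells grown at 37 °C, 5% CO2, in MEM with 10% FBS. Compound cytotoxicity was measured by Hoechst DNA staining. Activity is expressed as IC50, the concentration inhibiting 50% of cell growth.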

The subject of data set [3] is PA-1 human ovary teratocarcinoma cells. The data set is described as follows: Cytotoxicity, resazurin metabolism assay, PA-1. The note with it: mean ± SD. The class given is cell-based.
Source text: as §1, §2, §3

The next data set has as its system A-549 cells. As to the kind of experiment: Cytotoxicity, Hoechst DNA assay, A-549. The settings on record: ± SD. The class given is cell-based, human. Summed up: as §4
Data set [4] is described as follows: Toxicity of treatment by body weight of tumour-bearing mice. The note with it: Lewis lung cancer-bearing mice, IP treatment, day 13. An excerpt: Individual dose were based on the body weight of each mouse.
In data set [5] the test system is SK-Mel-2 human melanoma cells. As to the kind of experiment: Cytotoxicity, resazurin metabolism assay, SK-Mel-2. The note with it: mean ± SD. The class given is cell-based.
Source text: as §1, §2, §3

Data set [6] has as its system Hep G2 human hepatocellular carcinoma cells. As to the kind of experiment: Cytotoxicity, resazurin metabolism assay, Hep G2. The data set is classed as cell-based. The note with it: mean ± SD.
Source text: as §1, §2, §3

Data set [7] relates to PC-3 human prostate adenocarcinoma cells. The data set is described as follows: Cytotoxicity, resazurin metabolism assay, PC-3. The data set is classed as cell-based. The settings on record: mean ± SD.
Source text: as §1, §2, §3

The subject of the next data set is B16-F1 cells. As to the kind of experiment: Cytotoxicity, Hoechst DNA assay, B16-F1. The class given is cell-based, mouse. The settings on record: ± SD. In a few lines:
as §4

The subject of a further data set is DLD-1 cells. The data set is described as follows: Cytotoxicity, Hoechst DNA assay, DLD-1. The data set is classed as cell-based, human. The note with it: ± SD. Summed up: as §4

Consider `C=C(C)[C@@H]1CC[C@]2(C(=O)O)CC[C@]3(C)[C@H](CC[C@@H]4[C@@]5(C)CC[C@H](O[C@@H]6O[C@@H](C)[C@H](O)[C@@H](O)[C@H]6O)C(C)(C)[C@@H]5CC[C@]43C)[C@@H]12` [Compound 22, 3-O-α-L-Rhamnopyranoside of betulinic acid], for which the IC50 amounted to 16 ± 2 µM in data set [1]; 19 ± 2 µM in data set [2]; 20 ± 2 µM in the data set with U-251 human glioma cells; 38 ± 6 µM with WS-1 cells; 8 ± 1 µM in data set [3]; 2.6 ± 0.3 µM with A-549 cells. The IC50 in data set [5] turned out to be 20 ± 7 µM; in data set [6] it was 20 ± 2 µM; in [7] it was 20 ± 6 µM; in the data set with B16-F1 cells, 4.2 ± 0.5 µM; in the data set on DLD-1 cells, 3.4 ± 0.5 µM. The “CTW (calculated tumour weight)” value in the data set on Lewis lung carcinoma (50 mg/kg IP every 3-4 days) was 297 ± 98 mg; in the data set with Lewis lung carcinoma (100 mg/kg IP every 3-4 days) it was 178 ± 53^e mg; with Lewis lung carcinoma (200 mg/kg IP every 3-4 days), 192 ± 50^e mg. Besides, the results for the “T/C (Treated/Control)” value with Lewis lung carcinoma (50 mg/kg IP), in the data set on Lewis lung carcinoma (100 mg/kg IP) and in the data set on Lewis lung carcinoma (200 mg/kg IP) were 91%, 55% and 59%, respectively. In addition, the “TGI (Tumour Growth Inhibition)” value in the data set with Lewis lung carcinoma (50 mg/kg IP) turned out to be 9%; with Lewis lung carcinoma (100 mg/kg IP), 45%; in the data set on Lewis lung carcinoma (200 mg/kg IP), 41%. Besides, the “Toxicity / body weight loss compared with controls” value in data set [4] is “did not show any sign of toxicity or body weight loss”.

Source of the values: US20100331269A1, “TRITERPENES DERIVATIVES AND USES THEREOF AS ANTITUMOR AGENTS OR ANTI-INFLAMMATORY AGENTS” (priority 2006, published 2010).
